{
  "source": "patent US20150177227A1",
  "about": "“CELLULAR AND ANIMAL MODELS FOR SCREENING THERAPEUTIC AGENTS FOR THE TREATMENT OF ALZHEIMER'S DISEASE” (priority 2012, published 2015)",
  "origin": "cited, not measured here",
  "key": {"[1]": {"test_system": "Alzheimer's disease"}, "[2]": {"test_system": "plaque", "conditions": "in vivo"}},
  "data": [
    {"substance": "solanezumab: humanized antibody from Eli Lilly & Co. shown to clear plaque", "values": [
      {"measurement": "benefit trend in phase II clinical trials", "setting": "[1]", "value": "neither antibody showed any trend"},
      {"measurement": "plaque clearance", "setting": "[2]", "value": "clear plaque"}
    ]}
  ]
}
